Source: patent US8765805B2, “Ligand activators of the RAR receptors and pharmaceutical/cosmetic applications thereof” (Galderma Research & Development, priority 2003, dated 2014)

Columns and labels:
Assay type in all cases: cell-based
Conditions in all cases: HeLa stable transfectants; for Kd: Schild regression vs reference antagonist, read-out: Kdapp; for AC50: concentration that gives 50% of the activity
RAR beta = target: T1, RAR beta (Homo sapiens, UniProt P10826); test: Transactivation test, HeLa reporter cells (luciferase), RAR beta
T1 sequence (P10826 183-417 limits assumed): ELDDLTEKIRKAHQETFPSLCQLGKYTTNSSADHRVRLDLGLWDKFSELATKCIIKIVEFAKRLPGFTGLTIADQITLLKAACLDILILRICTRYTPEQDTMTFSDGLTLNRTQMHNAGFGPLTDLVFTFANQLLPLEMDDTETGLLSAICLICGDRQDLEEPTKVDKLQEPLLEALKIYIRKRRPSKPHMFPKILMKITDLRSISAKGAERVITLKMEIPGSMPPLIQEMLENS
Method: (§1) The activation of receptors with an agonist (activator) in HeLa cells leads to the expression of a reporter gene, luciferase, which, in the presence of a substrate, generates light. The activation of the receptors may thus be measured by quantifying the luminescence produced after incubating the cells in the presence of a reference antagonist. The activating products displace the antagonist from its site, thus allowing activation of the receptor. The activity is measured by quantifying the increase in light produced. This measurement makes it possible to determine the activating activity of the compounds according to the invention.
(§2) Determination of the Kdapp:
(§3) In this study, a constant is determined which is the affinity of the molecule for the receptor. Since this value can fluctuate depending on the basal activity and the expression of the receptor, it is referred to as the Kdapparent (KdApp).
(§4) To determine this constant, the cells are brought into contact with a concentration of the test product and a concentration of the reference antagonist, 4-(5,5-dimethyl-8-p-tolyl-5,6-dihydronaphth-2-ylethynyl)benzoic acid. Measurements are also taken for the total agonist (4-[2-(5,5,8,8-tetramethyl-5,6,7,8-tetrahydronaphth-2-yl)propenyl]benzoic acid) and inverse agonist, 4-{(E)-3-[4-(4-tert-butylphenyl)-5,5,8,8-tetramethyl-5,6,7,8-tetrahydro-2-naphthyl]-3-oxopropenyl}benzoic acid, controls.
(§5) These crossed curves make it possible to determine the AC50 values (concentration at which 50% activation is observed) for the reference ligand at various concentrations of test product. These AC50 values are used to calculate the Schild regression by plotting a straight line corresponding to the Schild equation (“quantitation in receptor pharmacology” Terry P. Kenakin, Receptors and Channels, 2001, 7, 371-385).
(§6) In the case of an agonist, an AC50 value (concentration that gives 50% of the activity) is calculated by plotting the curve of the product at the concentration of the reference ligand that gives 80% activation.
(§7) The HeLa cell lines used are stable transfectants containing the plasmids ERE-βGlob-Luc-SV-Neo (reporter gene) and RAR (α, β, γ) ER-DBD-puro. These cells are inoculated into 96-well plates at a rate of 10,000 cells per well in 100 μl of DMEM medium without phenol red, and supplemented with 10% defatted calf serum. The plates are then incubated at 37° C. and 7% CO2 for 4 hours.
(§8) The various dilutions of the test products, of the reference ligand (4-(5,5-dimethyl-8-p-tolyl-5,6-dihydronaphth-2-yl)ethynyl)benzoic acid, of the 100% control (100 nM 4-[2-(5,5,8,8-tetramethyl-5,6,7,8-tetrahydro-2-naphthyl)propenyl]benzoic acid) and of the 0% control (500 nM 4-{(E)-3-[4-(4-tert-butylphenyl)-5,5,8,8-tetramethyl-5,6,7,8-tetrahydro-2-naphthyl]-3-oxopropenyl}benzoic acid) are added at a rate of 5 μl per well. The plates are then incubated for 18 hours at 37° C. and 7% CO2.
(§9) The culture medium is removed by turning over and 100 μl of a 1:1 PBS/luciferine mixture is added to each well. After 5 minutes, the plates are read using the luminescence detector.

RAR alpha = target: T2, RAR alpha (Homo sapiens, UniProt P10276); test: Transactivation test, HeLa reporter cells (luciferase), RAR alpha
T2 sequence (P10276 183-417 limits assumed): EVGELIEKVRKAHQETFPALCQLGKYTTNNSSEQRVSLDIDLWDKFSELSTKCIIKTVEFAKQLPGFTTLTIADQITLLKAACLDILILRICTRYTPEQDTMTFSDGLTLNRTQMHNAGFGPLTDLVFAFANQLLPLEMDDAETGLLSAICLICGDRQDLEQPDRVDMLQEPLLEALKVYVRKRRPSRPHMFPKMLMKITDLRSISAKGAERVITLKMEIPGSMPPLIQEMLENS
Method: as §1, §2, §3, §4, §5, §6, §7, §8, §9

RAR gamma = target: T3, RAR gamma (Homo sapiens, UniProt P13631); test: Transactivation test, HeLa reporter cells (luciferase), RAR gamma
T3 sequence (P13631 185-419 limits assumed): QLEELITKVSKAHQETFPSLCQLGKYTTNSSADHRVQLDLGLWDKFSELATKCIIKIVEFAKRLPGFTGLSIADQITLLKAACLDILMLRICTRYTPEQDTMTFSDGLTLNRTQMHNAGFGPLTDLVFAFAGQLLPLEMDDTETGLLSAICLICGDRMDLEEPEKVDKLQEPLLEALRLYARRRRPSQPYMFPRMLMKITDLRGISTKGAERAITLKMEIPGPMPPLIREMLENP
Method: as §1, §2, §3, §4, §5, §6, §7, §8, §9

Row | Compound | Kd (RAR beta) [nM] | AC50 (RAR beta) [nM] | Kd (RAR alpha) [nM] | AC50 (RAR alpha) [nM] | Kd (RAR gamma) [nM] | AC50 (RAR gamma) [nM]
1 | COCCOc1cc(C(O)C#Cc2ccc(C(=O)O)cc2)cc2c1C(C)(C)CCC2(C)C (stereo not drawn) [Ex 1, 4-{3-Hydroxy-3-[4-(2-methoxyethoxy)-5,5,8,8-tetramethyl-5,6,7,8-tetrahydronaphth-2-yl]prop-1-ynyl}benzoic acid] | 60 | 45 | 60 | 400 | 2 | 2
2 | CCOCCOc1cc(C(O)C#Cc2ccc(C(=O)O)cc2)cc2c1C(C)(C)CCC2(C)C (stereo not drawn) [Ex 2, 4-{3-Hydroxy-3-[4-(2-ethoxyethoxy)-5,5,8,8-tetramethyl-5,6,7,8-tetrahydronaphth-2-yl]-prop-1-ynyl}benzoic acid] | – | 500 | 1000 | 900 | 30 | 50
3 | CCOCCOc1cc(C(O)C#Cc2ccc(C(=O)O)c(O)c2)cc2c1C(C)(C)CCC2(C)C (stereo not drawn) [Ex 3, 4-{3-Hydroxy-3-[4-(2-ethoxyethoxy)-5,5,8,8-tetramethyl-5,6,7,8-tetrahydronaphth-2-yl]prop-1-ynyl}-2-hydroxybenzoic acid] | 120 | 100 | 30 | 150 | 1 | 1

The remaining lines, values ahead:

Row | Kd (RAR beta) [nM] | AC50 (RAR beta) [nM] | Kd (RAR alpha) [nM] | AC50 (RAR alpha) [nM] | Kd (RAR gamma) [nM] | AC50 (RAR gamma) [nM] | Compound
4 | – | 200 | 120 | 800 | 1 | 1.2 | CCOCCOc1cc([C@H](O)C#Cc2ccc(C(=O)O)cc2)cc2c1C(C)(C)CCC2(C)C [Ex 4, 4-{3-Hydroxy-3-[4-(2-ethoxyethoxy)-5,5,8,8-tetramethyl-5,6,7,8-tetrahydronaphth-2-yl]-prop-1-ynyl}benzoic (S)-acid]
5 | – | 200 | 120 | 800 | 1 | 1.8 | CCOCCOc1cc([C@@H](O)C#Cc2ccc(C(=O)O)cc2)cc2c1C(C)(C)CCC2(C)C [Ex 5, 4-{3-Hydroxy-3-[4-(2-ethoxyethoxy)-5,5,8,8-tetramethyl-5,6,7,8-tetrahydronaphth-2-yl]prop-1-ynyl}benzoic (R)-acid]
